The text below walks through data of patent publication US9108944B2, “Androgen receptor modulators and uses thereof” (ARAGON PHARMACEUTICALS, INC., priority 2010, dated 2015).

Assay [1] addresses T1, AR-VP16 (Homo sapiens, UniProt P10275).
T1 sequence (P10275 560-920 limits assumed): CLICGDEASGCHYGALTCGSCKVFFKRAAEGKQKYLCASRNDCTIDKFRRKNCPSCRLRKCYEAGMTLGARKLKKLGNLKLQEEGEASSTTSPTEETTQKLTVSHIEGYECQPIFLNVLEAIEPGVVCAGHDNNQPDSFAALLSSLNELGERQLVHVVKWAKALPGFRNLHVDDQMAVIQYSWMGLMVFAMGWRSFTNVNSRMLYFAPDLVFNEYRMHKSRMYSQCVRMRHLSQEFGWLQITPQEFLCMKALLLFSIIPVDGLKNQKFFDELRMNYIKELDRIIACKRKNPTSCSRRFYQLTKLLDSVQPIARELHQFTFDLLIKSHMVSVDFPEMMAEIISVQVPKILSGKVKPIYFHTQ
The assay is described as follows: AR-VP16 DNA Binding Assay, agonist mode (HepG2 cells). It is filed as cell-based. To be noted: Emax >20x DMSO control = agonist.

In assay [2] the target is T1, AR-VP16. The experiment in a line: AR-VP16 DNA Binding Assay, antagonist mode (HepG2 cells, 0.1 nM R1881). It is filed as cell-based. In short, it runs like this:
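HepG2 cells transiently transfected with AR-VP16 (Lipofectin), incubated overnight, then treated with compound in RPMI with charcoal-stripped serum. Antagonist mode adds R1881 at 0.1 nM final. Cells lysed after 48 h incubation for read-out.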

SMILES strings stand for the structures.

Broadly, the IC50 is the midpoint of a concentration-inhibition curve. Higher therefore signals a need for much substance. As for `CN1CCN(CCCNC(=O)c2ccc(N3C(=S)N(c4cnc(C#N)c(C(F)(F)F)c4)C(=O)C34CCC4)cc2F)CC1` [Compound 269, 4-(7-(6-Cyano-5-(trifluoromethyl)pyridin-3-yl)-8-oxo-6-thioxo-5,7-diazaspiro[3.4]octan-5-yl)-2-fluoro-N-(3-(4-methylpiperazin-1-yl)propyl)benzamide], the “ARVP16 DNA Binding Assay (Agonist mode): Agonist?” value (from here on “ARVP16 DNA Binding Assay”) in assay [1] is “No (Agonist defined as a compound whose Emax in the ARVP16 DNA Binding Assay (Agonist mode) is >20x DMSO control)”. The same compound yielded an IC50 in assay [2] of less than 1000 nM.
Consider `N#Cc1ncc(N2C(=O)C3(CCC3)N(c3ccc(C(=O)N4CCCC4)c(F)c3)C2=S)cc1C(F)(F)F` [Compound 270, 5-(5-(3-Fluoro-4-(pyrrolidine-1-carbonyl)phenyl)-8-oxo-6-thioxo-5,7-diazaspiro[3.4]octan-7-yl)-3-(trifluoromethyl)picolinonitrile], for which the “ARVP16 DNA Binding Assay” value in assay [1] is on record as “No (Agonist defined as a compound whose Emax in the ARVP16 DNA Binding Assay (Agonist mode) is >20x DMSO control)”. For the same compound, the IC50 in assay [2] was more than 1000 nM.
As to `N#Cc1ncc(N2C(=O)C3(CCC3)N(c3ccc(C(=O)N4CCOCC4)c(F)c3)C2=S)cc1C(F)(F)F` [Compound 271, 5-(5-(3-Fluoro-4-(morpholine-4-carbonyl)phenyl)-8-oxo-6-thioxo-5,7-diazaspiro[3.4]octan-7-yl)-3-(trifluoromethyl)picolinonitrile], the “ARVP16 DNA Binding Assay” value in assay [1] is given as “No (Agonist defined as a compound whose Emax in the ARVP16 DNA Binding Assay (Agonist mode) is >20x DMSO control)”. In addition, the IC50 in assay [2] was more than 1000 nM.
For `Cc1cc(N2C(=O)C3(CCC3)N(c3ccc(C(=O)Nc4ccccc4)c(F)c3)C2=S)cnc1C#N` [Compound 272, 4-(7-(6-Cyano-5-methylpyridin-3-yl)-8-oxo-6-thioxo-5,7-diazaspiro[3.4]octan-5-yl)-2-fluoro-N-phenylbenzamide], in that order: “No (Agonist defined as a compound whose Emax in the ARVP16 DNA Binding Assay (Agonist mode) is >20x DMSO control)” and less than 1000 nM.
For `Cc1cc(N2C(=O)C3(CCC3)N(c3ccc(C(=O)NCc4cccs4)c(F)c3)C2=S)cnc1C#N` [Compound 274, 4-(7-(6-Cyano-5-methylpyridin-3-yl)-8-oxo-6-thioxo-5,7-diazaspiro[3.4]octan-5-yl)-2-fluoro-N-(thiophen-2-ylmethyl)benzamide] the same measures were “No (Agonist defined as a compound whose Emax in the ARVP16 DNA Binding Assay (Agonist mode) is >20x DMSO control)” and less than 1000 nM.
Take `Cc1cc(N2C(=O)C3(CCC3)N(c3ccc(C(=O)NCCCN4CCCC4)c(F)c3)C2=S)cnc1C#N` [Compound 275, 4-(7-(6-Cyano-5-methylpyridin-3-yl)-8-oxo-6-thioxo-5,7-diazaspiro[3.4]octan-5-yl)-2-fluoro-N-(3-(pyrrolidin-1-yl)propyl)benzamide]: in assay [1], the “ARVP16 DNA Binding Assay” value is on record as “No (Agonist defined as a compound whose Emax in the ARVP16 DNA Binding Assay (Agonist mode) is >20x DMSO control)”. In assay [2], this compound registered an IC50 of more than 1000 nM.
For `CN1CCC(NC(=O)c2ccc(N3C(=S)N(c4cnc(C#N)c(C(F)(F)F)c4)C(=O)C34CCC4)cc2F)CC1` [Compound 276, 4-(7-(6-Cyano-5-(trifluoromethyl)pyridin-3-yl)-8-oxo-6-thioxo-5,7-diazaspiro[3.4]octan-5-yl)-2-fluoro-N-(1-methylpiperidin-4-yl)benzamide], in that order: “No (Agonist defined as a compound whose Emax in the ARVP16 DNA Binding Assay (Agonist mode) is >20x DMSO control)” and more than 1000 nM.
Consider `CCCCNC(=O)c1ccc(N2C(=S)N(c3cnc(C#N)c(C(F)(F)F)c3)C(=O)C23CCC3)cc1F` [Compound 277, N-Butyl-4-(7-(6-cyano-5-(trifluoromethyl)pyridin-3-yl)-8-oxo-6-thioxo-5,7-diazaspiro[3.4]octan-5-yl)-2-fluorobenzamide], for which the “ARVP16 DNA Binding Assay” value in assay [1] is on record as “No (Agonist defined as a compound whose Emax in the ARVP16 DNA Binding Assay (Agonist mode) is >20x DMSO control)”. Moreover, the 50% inhibitory concentration (IC50) in assay [2] is less than 1000 nM.
For `CC(C)NC(=O)c1ccc(N2C(=S)N(c3cnc(C#N)c(C(F)(F)F)c3)C(=O)C23CCC3)cc1F` [Compound 279, 4-(7-(6-Cyano-5-(trifluoromethyl)pyridin-3-yl)-8-oxo-6-thioxo-5,7-diazaspiro[3.4]octan-5-yl)-2-fluoro-N-isopropylbenzamide], in that order: “No (Agonist defined as a compound whose Emax in the ARVP16 DNA Binding Assay (Agonist mode) is >20x DMSO control)” and less than 1000 nM.
For `CC(C)CNC(=O)c1ccc(N2C(=S)N(c3cnc(C#N)c(C(F)(F)F)c3)C(=O)C23CCC3)cc1F` [Compound 280, 4-(7-(6-Cyano-5-(trifluoromethyl)pyridin-3-yl)-8-oxo-6-thioxo-5,7-diazaspiro[3.4]octan-5-yl)-2-fluoro-N-isobutylbenzamide] the same measures were “No (Agonist defined as a compound whose Emax in the ARVP16 DNA Binding Assay (Agonist mode) is >20x DMSO control)” and less than 1000 nM.
For `N#Cc1ncc(N2C(=O)C3(CCC3)N(c3ccc(C(=O)NCC4CCCC4)c(F)c3)C2=S)cc1C(F)(F)F` [Compound 283, 4-(7-(6-Cyano-5-(trifluoromethyl)pyridin-3-yl)-8-oxo-6-thioxo-5,7-diazaspiro[3.4]octan-5-yl)-N-(cyclopentylmethyl)-2-fluorobenzamide], in that order: “No (Agonist defined as a compound whose Emax in the ARVP16 DNA Binding Assay (Agonist mode) is >20x DMSO control)” and less than 1000 nM.
As for `N#Cc1ncc(N2C(=O)C3(CCC3)N(c3ccc(C(=O)NCc4cccc(Cl)c4)c(F)c3)C2=S)cc1C(F)(F)F` [Compound 288, N-(3-Chlorobenzyl)-4-(7-(6-cyano-5-(trifluoromethyl)pyridin-3-yl)-8-oxo-6-thioxo-5,7-diazaspiro[3.4]octan-5-yl)-2-fluorobenzamide], in assay [1], the “ARVP16 DNA Binding Assay” value is given as “No (Agonist defined as a compound whose Emax in the ARVP16 DNA Binding Assay (Agonist mode) is >20x DMSO control)”. Moreover, the IC50 in assay [2] was less than 1000 nM.
As to `N#Cc1ncc(N2C(=O)C3(CCC3)N(c3ccc(C(=O)NCc4ccc(Cl)cc4)c(F)c3)C2=S)cc1C(F)(F)F` [Compound 289, N-(4-Chlorobenzyl)-4-(7-(6-cyano-5-(trifluoromethyl)pyridin-3-yl)-8-oxo-6-thioxo-5,7-diazaspiro[3.4]octan-5-yl)-2-fluorobenzamide], the “ARVP16 DNA Binding Assay” value in assay [1] is given as “No (Agonist defined as a compound whose Emax in the ARVP16 DNA Binding Assay (Agonist mode) is >20x DMSO control)”. In addition, the IC50 in assay [2] was less than 1000 nM.
For `N#Cc1ncc(N2C(=O)C3(CCC3)N(c3ccc(C(=O)NCc4cnccn4)c(F)c3)C2=S)cc1C(F)(F)F` [Compound 290, 4-(7-(6-Cyano-5-(trifluoromethyl)pyridin-3-yl)-8-oxo-6-thioxo-5,7-diazaspiro[3.4]octan-5-yl)-2-fluoro-N-(pyrazin-2-ylmethyl)benzamide], in that order: “No (Agonist defined as a compound whose Emax in the ARVP16 DNA Binding Assay (Agonist mode) is >20x DMSO control)” and less than 1000 nM.
